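Test compounds were applied to cells in 96-well plates for 48 hours at 5 doses. At the TGI there is no net growth.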
Assays:
Experiment in all cases: NCI tumour cell line growth inhibition, 48 h
SR leukemia = test system: SR leukemia
U251 CNS = test system: U251 CNS
DU-145 prostate = test system: DU-145 prostate
A549 NSCLC = test system: A549 NSCLC
SNB-75 CNS = test system: SNB-75 CNS
SF-539 CNS = test system: SF-539 CNS
OVCAR-5 ovarian = test system: OVCAR-5 ovarian
SW-620 colon = test system: SW-620 colon
HCT-15 colon = test system: HCT-15 colon
SNB-19 CNS = test system: SNB-19 CNS
K-562 leukemia = test system: K-562 leukemia
EKVX NSCLC = test system: EKVX NSCLC
UACC-62 melanoma = test system: UACC-62 melanoma
BT-549 breast = test system: BT-549 breast
M14 melanoma = test system: M14 melanoma
HT29 colon = test system: HT29 colon

| Structure (SMILES) | TGI (SR leukemia) [µM] | TGI (U251 CNS) [µM] | TGI (DU-145 prostate) [µM] | TGI (A549 NSCLC) [µM] | TGI (SNB-75 CNS) [µM] | TGI (SF-539 CNS) [µM] | TGI (OVCAR-5 ovarian) [µM] | TGI (SW-620 colon) [µM] | TGI (HCT-15 colon) [µM] | TGI (SNB-19 CNS) [µM] | TGI (K-562 leukemia) [µM] | TGI (EKVX NSCLC) [µM] | TGI (UACC-62 melanoma) [µM] | TGI (BT-549 breast) [µM] | TGI (M14 melanoma) [µM] | TGI (HT29 colon) [µM] |
| --- | --- | --- | --- | --- | --- | --- | --- | --- | --- | --- | --- | --- | --- | --- | --- | --- |
| COc1cccc(/C=C\c2ccc(O)cc2)c1 | 20.1 | > 57.5 | 56.6 | > 80.9 | 70.2 | 53.1 | > 100 | > 90.7 | > 76.1 | > 100 | > 50.4 | > 100 | > 100 | 58.4 | 63.5 | 53.7 |
| C1CN2CCNCCN(CCN1)CC2 | > 100 | > 100 | > 100 | > 100 | > 100 | > 100 | > 100 | > 100 | > 100 | > 100 | > 100 | > 100 | > 100 | > 100 | > 100 | > 100 |
| CCCC(=O)NC(Nc1ccc(S(=O)(=O)Nc2ccc(OC)nn2)cc1)(C(F)(F)F)C(F)(F)F | > 100 | > 100 | > 100 | > 100 | > 100 | > 100 | > 100 | > 100 | > 100 | > 100 | > 100 | > 100 | > 100 | > 100 | > 100 | > 100 |
| CC1=NN(c2nc(N)nc(/C(C#N)=C\c3cccc([N+](=O)[O-])c3)n2)C(C)(C)C1 | > 73.1 | 38.4 | 50.8 | > 56.8 | 30.9 | 36.5 | > 100 | > 51 | > 47.6 | 88.5 | > 35.4 | > 100 | > 40.2 | > 89.8 | > 48.9 | > 100 |
| COC(=O)C1=NN2c3ccccc3CN([C@@H](C)c3ccccc3)C(=O)[C@@H]2[C@H]1c1ccccc1 | > 100 | > 100 | > 100 | > 100 | > 100 | > 100 | > 100 | > 100 | > 100 | > 100 | > 100 | > 100 | > 100 | > 100 | > 100 | > 100 |
| CCCCc1c2c(c(C)c3c1C(=O)OC3)Oc1ccccc1O2 | > 40.1 | 14.9 | > 43.8 | > 43.2 | 13.4 | 3.67 | > 100 | > 42 | > 100 | > 75 | 22.4 | > 100 | > 100 | > 100 | > 100 | > 40.9 |
| O=C1c2ccccc2C(=O)c2c(NCCCN3CCOCC3)ccc(NCCCN3CCOCC3)c21 | > 100 | 19 | 52.6 | 16.2 | 10.7 | 4.03 | 38.5 | 28.1 | > 100 | 41 | > 100 | 46.6 | 6.05 | 21.6 | 10.1 | 12.7 |
| CC1C(c2ccccc2O)c2cc3c(cc2OC1N1CCOCC1)OCO3 (centres undefined) | 29.5 | 64.7 | > 100 | 80.7 | 91.3 | 46.5 | > 100 | > 100 | > 100 | > 100 | 90.6 | > 100 | 90.2 | > 100 | > 100 | 68.4 |
| COc1ccc(/C=C/C(=O)c2ccc(OC(=O)/C=C/c3ccccc3)cc2)cc1 | 16.9 | > 100 | > 74.2 | > 100 | > 82.2 | > 53.5 | > 100 | 98.9 | > 100 | > 63.4 | > 100 | > 92.2 | > 63.7 | > 58.3 | > 100 | 39.6 |
| CCO/C(Cc1ccc(Cl)cc1)=N/NC(N)=S | > 100 | > 100 | > 100 | > 100 | > 100 | > 100 | > 100 | > 100 | > 100 | > 100 | > 100 | > 100 | > 100 | > 100 | > 100 | > 100 |
| O=C1CC2SC(COCc3ccccc3)(CCN2Cc2ccccc2)C1 (centres undefined) | > 100 | > 100 | > 100 | > 100 | > 100 | > 100 | > 100 | > 100 | > 100 | > 100 | > 100 | > 100 | > 100 | > 100 | > 100 | > 100 |
| O=c1oc2ccc3ccccc3c2cc1-c1nc2ccc([N+](=O)[O-])cc2o1 | > 100 | > 100 | > 100 | > 79.1 | > 100 | 26.3 | > 100 | > 100 | > 100 | > 28.6 | > 100 | > 100 | > 100 | > 95 | > 75.3 | > 100 |
| COc1cc(/C=N/NC2=NCCCCN2)ccc1O | > 100 | > 100 | > 100 | > 100 | > 100 | > 100 | > 100 | > 100 | > 100 | > 100 | > 100 | > 100 | > 100 | > 100 | > 100 | > 100 |
| N/C(=N\S(=O)(=O)c1cc(Cl)c(Oc2ccc([N+](=O)[O-])cc2Cl)c(Cl)c1)Nc1ccc(Cl)cc1 | 43.3 | 29.6 | 35.8 | 35.9 | 35.2 | 34.4 | 53.6 | 45.9 | 33.3 | 33.6 | 43.1 | 36.6 | 25.6 | 32.3 | 36.4 | 54.4 |
| CC1(C)C2CCC(O)(C2)C1N (centres undefined) | > 100 | > 100 | > 100 | > 100 | > 100 | > 100 | > 100 | > 100 | > 100 | > 100 | > 100 | > 100 | > 100 | > 100 | > 100 | > 100 |
| O=C(N/N=C/C=C/c1ccc([N+](=O)[O-])o1)c1ccc(C(=O)N/N=C/C=C/c2ccc([N+](=O)[O-])o2)cc1 | > 73.4 | > 52.8 | > 73.4 | > 100 | > 100 | 22.3 | > 100 | 98.5 | > 100 | > 100 | > 93.5 | > 100 | > 100 | > 100 | 49.7 | > 100 |
| COc1cc2c[n+](C)c3c(c2cc1OC)Cc1cc2c(cc1-3)OCO2 | > 100 | > 100 | > 100 | > 100 | > 100 | > 100 | > 100 | > 100 | > 100 | > 100 | > 100 | > 100 | > 100 | > 100 | > 100 | > 100 |
| COc1ccc(C(=O)/C=C/c2ccc(OCC(=N)N)cc2)cc1 | 25.9 | 27.7 | 25.4 | 33.1 | 20.3 | 29.6 | 83.9 | 14.7 | 31.7 | 29.2 | 20.1 | 30.8 | 29 | 31.7 | 32.6 | 28.8 |
| COc1cc(C2c3c(ccc4ccccc34)C(=O)C3CCC(=O)N32)cc(OC)c1O (centres undefined) | > 25 | > 25 | > 25 | > 25 | > 25 | > 25 | > 25 | > 25 | > 25 | > 25 | > 25 | > 25 | > 25 | > 25 | > 25 | > 25 |

Reference: PubChem BioAssay (NCI)
